pIC50, pKi: −log10 of the molar value.
Columns and labels:
[1] = Inhibition of CerS human HCT-116 cells microsomal fraction assessed as reduction in C24:1 dihydroceramide synthesis by LC-MS/MS analysis; type: microsomes, Microsome
[2] = Inhibition of CerS human HCT-116 cells microsomal fraction assessed as reduction in C18 dihydroceramide synthesis by LC-MS/MS analysis; type: microsomes, Microsome
[3] = Inhibition of rat brain aSMase; type: tissue-based
[4] = biological target: T1, Sphingomyelin phosphodiesterase 2 (Rattus norvegicus) (UniProt Q9ET64); assay: Inhibition of rat brain microsomes nSMase at 100 uM incubated for 60 mins relative to control; conditions: Microsome
T1 sequence (whole entry): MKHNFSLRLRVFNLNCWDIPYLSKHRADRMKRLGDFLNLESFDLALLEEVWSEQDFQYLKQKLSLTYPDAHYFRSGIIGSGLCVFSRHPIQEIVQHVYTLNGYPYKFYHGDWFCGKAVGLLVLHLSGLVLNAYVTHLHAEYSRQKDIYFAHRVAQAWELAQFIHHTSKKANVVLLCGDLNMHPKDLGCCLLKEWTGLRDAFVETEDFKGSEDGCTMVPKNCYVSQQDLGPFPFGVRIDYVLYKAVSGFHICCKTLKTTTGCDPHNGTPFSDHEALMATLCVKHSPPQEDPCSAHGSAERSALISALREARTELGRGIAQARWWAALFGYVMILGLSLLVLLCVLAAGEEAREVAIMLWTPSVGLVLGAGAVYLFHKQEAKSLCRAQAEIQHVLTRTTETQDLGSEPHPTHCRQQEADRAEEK

[5] = biological target: T1, Sphingomyelin phosphodiesterase 2 (Rattus norvegicus); assay: Inhibition of rat brain microsomes nSMase at 100 uM relative to control; conditions: Microsome
[6] = Inhibition of CerS human HCT-116 cells microsomal fraction assessed as reduction in C24 dihydroceramide synthesis by LC-MS/MS analysis; type: microsomes, Microsome
[7] = biological target: T1, Sphingomyelin phosphodiesterase 2 (Rattus norvegicus); assay: Inhibition of rat brain microsomes nSMase at 350 uM measured after 15 mins relative to control; conditions: Microsome
[8] = biological target: T2, Sphingolipid delta(4)-desaturase DES1 (Homo sapiens, UniProt O15121); assay: Inhibition of DES1 in human HGC-27 cell lysates; type: subcellular
T2 sequence (O15121 whole entry): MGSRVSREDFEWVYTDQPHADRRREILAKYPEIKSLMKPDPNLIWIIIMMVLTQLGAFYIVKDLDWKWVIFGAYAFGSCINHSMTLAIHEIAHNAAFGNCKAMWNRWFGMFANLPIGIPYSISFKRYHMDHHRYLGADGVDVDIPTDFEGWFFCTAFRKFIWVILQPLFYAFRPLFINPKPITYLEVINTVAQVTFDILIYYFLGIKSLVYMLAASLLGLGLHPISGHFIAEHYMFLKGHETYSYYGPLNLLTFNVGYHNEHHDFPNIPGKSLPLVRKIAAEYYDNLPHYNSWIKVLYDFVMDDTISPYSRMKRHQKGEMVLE

[9] = system: Neutral sphingomyelinase (Sus scrofa); assay: Inhibition of pig liver plasma membranes nSMase at 100 uM measured after 15 mins at 100 uM relative to control; conditions: Plasma membrane
[10] = biological target: T3, Sphingomyelin phosphodiesterase 2 (Rattus norvegicus, UniProt Q9ET64); assay: Inhibition of rat brain microsomes nSMase; set-up: species or system Microsome
T3 sequence (Q9ET64 whole entry): T1 sequence (whole entry)

[11] = biological target: Ceramide synthase 5 (Homo sapiens) (UniProt Q8N5B7); assay: Inhibition of CerS5 (unknown origin) at 10 uM relative to control
[12] = biological target: Ceramide synthase 6 (Homo sapiens) (UniProt Q6ZMG9); assay: Inhibition of CerS6 (unknown origin) at 10 uM relative to control
[13] = biological target: T4, Ceramide synthase 1 (Homo sapiens) (UniProt P27544); assay: Inhibition of CerS1 (unknown origin) at 10 uM relative to control
T4 sequence (whole entry): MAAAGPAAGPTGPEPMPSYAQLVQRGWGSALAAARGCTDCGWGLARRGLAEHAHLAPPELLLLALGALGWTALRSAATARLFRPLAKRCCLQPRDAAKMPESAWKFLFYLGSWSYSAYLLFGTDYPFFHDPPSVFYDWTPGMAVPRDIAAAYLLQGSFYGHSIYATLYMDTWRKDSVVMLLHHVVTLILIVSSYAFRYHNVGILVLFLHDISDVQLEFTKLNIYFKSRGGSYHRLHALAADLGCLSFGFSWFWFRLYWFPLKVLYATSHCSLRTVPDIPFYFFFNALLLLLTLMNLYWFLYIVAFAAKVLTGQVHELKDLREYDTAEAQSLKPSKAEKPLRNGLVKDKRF

[14] = system: HEK293; assay: Competitive inhibition of CerS in HEK293 cells at 10 uM relative to control; type: cell-based; conditions: Homo sapiens
[15] = Inhibition of rat brain aSMase using HMU-PC as substrate incubated for 3 hrs by fluorescence based analysis; type: tissue-based
[16] = Inhibition of bovine brain microsomes nSMase; set-up: species or system Bos taurus, Microsome
[17] = Inhibition of rat brain aSMase using HMU-PC as substrate incubated for 3 hrs by fluorescence plate reader assay; type: tissue-based
[18] = biological target: T5, Sphingomyelinase C (Bacillus cereus, UniProt P11889); assay: Inhibition of Bacillus cereus SMaseC
T5 sequence (P11889 whole entry): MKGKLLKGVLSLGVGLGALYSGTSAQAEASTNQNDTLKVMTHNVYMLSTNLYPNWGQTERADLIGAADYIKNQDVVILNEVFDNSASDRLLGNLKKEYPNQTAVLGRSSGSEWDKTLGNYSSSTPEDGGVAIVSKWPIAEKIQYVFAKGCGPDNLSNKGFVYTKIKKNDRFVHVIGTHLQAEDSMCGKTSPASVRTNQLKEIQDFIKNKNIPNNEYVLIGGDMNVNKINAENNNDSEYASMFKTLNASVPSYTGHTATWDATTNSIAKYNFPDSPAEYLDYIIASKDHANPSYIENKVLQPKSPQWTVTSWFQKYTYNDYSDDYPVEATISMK

[19] = Inhibition of bovine brain microsomes nSMase assessed as inhibition constant; set-up: species or system Bos taurus, Microsome
[20] = biological target: T1, Sphingomyelin phosphodiesterase 2 (Rattus norvegicus); assay: Inhibition of rat brain microsomes nSMase at 200 uM measured after 90 mins relative to control; conditions: Microsome
[21] = species: Bos taurus; assay: Inhibition of bovine brain microsomes nSMase measured after 60 mins relative to control; conditions: Microsome
[22] = biological target: T6, Sphingomyelin phosphodiesterase 2 (Mus musculus, UniProt O70572); assay: Inhibition of mouse nSMase
T6 sequence (O70572 whole entry): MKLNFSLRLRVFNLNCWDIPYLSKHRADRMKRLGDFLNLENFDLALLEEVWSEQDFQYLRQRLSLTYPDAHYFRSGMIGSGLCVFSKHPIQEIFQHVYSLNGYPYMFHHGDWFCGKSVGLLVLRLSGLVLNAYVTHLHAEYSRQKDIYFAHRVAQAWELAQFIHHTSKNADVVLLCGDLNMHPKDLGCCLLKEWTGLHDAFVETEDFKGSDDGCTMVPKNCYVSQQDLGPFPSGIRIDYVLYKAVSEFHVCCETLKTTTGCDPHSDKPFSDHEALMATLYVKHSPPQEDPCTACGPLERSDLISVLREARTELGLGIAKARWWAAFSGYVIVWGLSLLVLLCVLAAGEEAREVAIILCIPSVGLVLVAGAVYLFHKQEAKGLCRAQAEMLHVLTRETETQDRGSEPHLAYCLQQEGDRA

Chain of Ceramide synthase 6 (Homo sapiens) (Q6ZMG9 whole entry): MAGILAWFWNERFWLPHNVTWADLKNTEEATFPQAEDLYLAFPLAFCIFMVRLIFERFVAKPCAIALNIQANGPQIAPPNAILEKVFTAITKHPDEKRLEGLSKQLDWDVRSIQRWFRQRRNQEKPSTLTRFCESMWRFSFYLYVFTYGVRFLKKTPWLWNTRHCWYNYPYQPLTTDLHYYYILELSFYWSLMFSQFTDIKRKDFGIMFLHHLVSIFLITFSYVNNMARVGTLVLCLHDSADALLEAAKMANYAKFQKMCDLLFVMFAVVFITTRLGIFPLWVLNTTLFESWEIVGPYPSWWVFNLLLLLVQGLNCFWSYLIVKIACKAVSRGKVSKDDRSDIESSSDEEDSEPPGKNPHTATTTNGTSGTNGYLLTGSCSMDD
Chain of Ceramide synthase 5 (Homo sapiens) (Q8N5B7 whole entry): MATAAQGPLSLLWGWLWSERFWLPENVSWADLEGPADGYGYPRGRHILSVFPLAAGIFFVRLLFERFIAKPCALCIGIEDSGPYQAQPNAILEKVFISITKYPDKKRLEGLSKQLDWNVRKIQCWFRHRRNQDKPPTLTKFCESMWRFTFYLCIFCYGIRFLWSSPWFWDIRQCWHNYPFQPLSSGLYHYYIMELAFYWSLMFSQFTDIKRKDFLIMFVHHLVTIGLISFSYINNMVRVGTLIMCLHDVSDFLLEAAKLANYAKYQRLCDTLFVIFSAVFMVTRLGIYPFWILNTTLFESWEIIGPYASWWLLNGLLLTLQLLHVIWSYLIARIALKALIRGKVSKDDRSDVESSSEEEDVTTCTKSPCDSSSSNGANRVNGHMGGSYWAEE

CCCCCCCOc1ccc(CCC(CO)(CO)N(C)C)cc1 showed a pIC50 [1] of 4.54 and a pIC50 [2] of 4.67.

Compound COc1ccc2oc(-c3cc(Br)cc4c3OCOC4)c(N)c(=O)c2c1 has a pIC50 [3] of 5.51.

For CCCCCCCCCCCC(=O)NC1=CC(=O)[C@H]2O[C@H]2C1=O, the inhibition [4] was 88% and the inhibition [5] was 10%.

With CC(C)C/C=C/C=C/C(=O)NC1=CC(=O)[C@H]2O[C@H]2C1=O the inhibition [4] was 98% and the inhibition [5] was 90%.

Compound CCCCCCCCCCCCCCCCC(=O)NC(CO)(CO)CCc1ccc(OCCCCCCC)cc1 has a pIC50 [6] of 4.20.

Work on C/C=C/C=C/C(=O)N[C@@H](CO)[C@H]1CC(CCCCCC)C(=O)O1 (stereo partly specified) yielded an inhibition [7] of 90%.

Compound CCCCCCCCCCC/C=C/CC[C@@H](O)[C@H](CO)NC(=O)CCCCCCC has a pIC50 [8] of 6.81.

Work on COc1c(O)c(C)c(C/C=C(\C)CC/C=C(\C)CC/C=C(\C)CC/C=C(\C)CC/C=C(\C)CC/C=C(\C)CC/C=C(\C)CC/C=C(\C)CC/C=C(\C)CCC=C(C)C)c(O)c1OC yielded an inhibition [9] greater than 90%.

In the case of N=C(N)N/N=C/c1cc2ccccc2[nH]1, the pIC50 [10] was 5.30.

In the case of CCCCCCCOc1ccc(CC[C@](C)(N)CO)cc1, the inhibition [11] was 50%, the inhibition [12] was 50% and the inhibition [13] was greater than 90%. It also gave an inhibition [14] of 50%.

With COS(=O)(=O)O[C@@H]1[C@H](O)[C@H](OP(=O)(O)O)[C@@H](O)[C@H](OP(=O)(O)O)[C@H]1O the pIC50 [15] was less than 4.00.

CCCCCCCCCCCCCCCC(=O)N[C@@H](CC(F)(F)P(=O)(O)O)[C@H](O)c1ccccc1 showed a pIC50 [16] of 3.74.

CCCCCCCC(N)(P(=O)(O)O)P(=O)(O)O gave a pIC50 [17] of 7.40.

With CCCCCCC[C@@H](O)[C@H](CNP(=O)([O-])OCC[N+](C)(C)C)NC(=O)CCCCC the pIC50 [18] was 4.28.

CCCCCCC[C@@H](O)[C@H](CC(F)(F)P(=O)([O-])OCC[N+](C)(C)C)NC(=O)CCCCC gave a pIC50 [18] of 4.24.

For Cc1csc(-c2c(C(F)(F)F)oc3cc(O)c(C)cc3c2=O)n1, the pIC50 [3] was 5.02.

CCCCCCCCCCCCNC(=S)N[C@H](CO)[C@H](O)c1ccc([N+](=O)[O-])cc1 gave a pKi [19] of 5.77.

For CCCCCCCCCC(=O)N[C@H](Cc1ccccc1)C(=O)NC1=CC2(CO2)C(=O)C=C1 (stereo partly specified), the inhibition [20] was 23%.

In the case of CCCCCCC[C@@H](O)[C@H](CCCP(=O)([O-])OCC[N+](C)(C)C)NC(=O)CCCCC, the pIC50 [18] was 4.11.

In the case of CCCCCCCCCCCCCCNC(=S)N[C@H](CO)[C@H](O)c1ccc([N+](=O)[O-])cc1, the pKi [19] was 5.60 and the inhibition [21] was 90%.

S=c1[nH]nc(-c2cccs2)n1CC1CCCCC1 showed a pIC50 [22] of 5.60.

With CCCCCCCCOS(=O)(=O)O[C@@H]1[C@H](O)[C@H](OP(=O)(O)O)[C@@H](O)[C@H](OP(=O)(O)O)[C@H]1O the pIC50 [15] was 5.40.

Compound CCCCCCCCCCCC(O)(P(=O)(O)O)P(=O)(O)O has a pIC50 [17] of 7.15.

Work on CCCCCCCCCC(N)(P(=O)(O)O)P(=O)(O)O yielded a pIC50 [17] of 7.70.

— ChEMBL document CHEMBL5226284, “Small Molecule Inhibitors Targeting Biosynthesis of Ceramide, the Central Hub of the Sphingolipid Network” (J Med Chem, 2021)
